Assays:
[1] = Amount of fragrance ingredients retained on paper blotter after evaporation (ethanol extraction, GC-MS); assay type: physicochemical
How it was run: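 100 µL of fragrance formulation applied to paper blotters kept at 32°C open to air; at each time three blotters extracted 1 h in ethanol with methyl decanoate internal standard and analysed by GC-MS (HP-5MS, 50–280°C). Amounts averaged over triplicates and expressed as percent of time-zero level.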

[2] = Headspace concentration of fragrance ingredients over blotter (thermal desorption GC-MS); assay type: physicochemical; conditions: fragrance TAK
Protocol: The headspace concentration of individual ingredients of fragrance TAK, as formulated in either a conventional EdT (EdT1) or a fragrance composition of the invention (C1), was assessed by the method described below.
A 10 cm length was cut from a standard perfumers' blotter. A sample of 100µL volume was applied to the upper surface of the blotter with a syringe. The blotter was placed on a hot plate thermostatted at 32°C and left to equilibrate for 5 minutes. Two desorption tubes (6cm length 4mm internal diameter) each containing 2 cm length of Tenax TA adsorbent were fitted to the glass part of a headspace apparatus shown in figure 9. The glass part was fitted over the blotter, a metering pump was connected to one of the desorption tubes and air was drawn through the apparatus flushing the headspace over the blotter at a rate of 17mL/min. Sampling continued for about 16.5 minutes until 280mL of air had been extracted. Then the outlet desorption tube was analysed by gas chromatography as described below. The glass part was removed from the blotter which was left on the hotplate until the next sampling time when two fresh desorption tubes were fitted and the extraction procedure repeated for a further 280mL of extracted headspace.
• Initial Temp: 50°C • Initial Time: 5 min • Rate: 3°C /min • Final Temp: 250°C • Final Time: 20 min • Run Time: 91.67 min
• Column: HP-5MS 30m * 0.25mm * 0.25µm • Gas: Helium • Constant pressure 12.675 psi
• Initial Temp: -30°C • Equilibration Time: 0.05 min • Initial Time: 0.00 min • Rate 12°C / min • End Temp: 260°C • Hold Time: 10 min
Temperature program • Initial Temp: 35°C • Delay Time: 0.30 min • Initial Time: 0.00 min • Rate: 30°C / min • End Temp: 250°C • Hold Time: 5.00 min
TDU Settings • Transfer Temp: 250°C • Transfer Temp Mode: Fixed • Desorption Mode: splitless • Sample mode: Retain tube - standby cooling • Standby Temp: 50°C
Detector MS • MS 5973 • Mass range: 35 to 350 • Threshold: 150 • Mass Quad: 150°C • Mass Source: 230°C
Following the procedure of example 2, the headspace concentration of representative ingredients of fragrance COM1 was determined. COM1 was dosed at 5 and 20 % either in control EdT3 and EdT4 or in compositions of the invention C7 and C8, as shown in table 10.
The headspace concentration of individual ingredients of fragrance TAK (see Table 1), as formulated in either a conventional EdT (EdT1) or fragrance compositions of the invention (C14, C15), was assessed by the method described in example 2.

[3] = Table 3, fragrance TAK in C1, 15 min, 32°C
[4] = Table 3, fragrance TAK in C1, 60 min, 32°C
[5] = Table 3, fragrance TAK in C1, 120 min, 32°C
[6] = Table 3, fragrance TAK in C1, 240 min, 32°C
[7] = Table 3, fragrance TAK in C1, 480 min, 32°C
[8] = Table 3, fragrance TAK in EdT1, 15 min, 32°C
[9] = Table 3, fragrance TAK in EdT1, 60 min, 32°C
[10] = Table 3, fragrance TAK in EdT1, 120 min, 32°C
[11] = Table 3, fragrance TAK in EdT1, 240 min, 32°C
[12] = Table 3, fragrance TAK in EdT1, 480 min, 32°C
[13] = Table 3, fragrance TAK in EdT1 or C1, T0, set at 100% (normalisation)
[14] = Table 4, fragrance TAK in C2, 15 min, 32°C
[15] = Table 4, fragrance TAK in C2, 480 min, 32°C
[16] = Table 4, fragrance TAK in EdT1, 15 min, 32°C
[17] = Table 4, fragrance TAK in EdT1, 480 min, 32°C
[18] = Table 4, fragrance TAK in EdT1 or C2, T0, set at 100% (normalisation)
[19] = Table 5, fragrance TAK in C3, 15 min, 32°C
[20] = Table 5, fragrance TAK in C3, 60 min, 32°C
[21] = Table 5, fragrance TAK in C3, 120 min, 32°C
[22] = Table 5, fragrance TAK in C3, 240 min, 32°C
[23] = Table 5, fragrance TAK in C3, 480 min, 32°C
[24] = Table 5, fragrance TAK in C3, 1440 min, 32°C
[25] = Table 5, fragrance TAK in EdT1, 15 min, 32°C
[26] = Table 5, fragrance TAK in EdT1, 60 min, 32°C
[27] = Table 5, fragrance TAK in EdT1, 120 min, 32°C
[28] = Table 5, fragrance TAK in EdT1, 240 min, 32°C
[29] = Table 5, fragrance TAK in EdT1, 480 min, 32°C
[30] = Table 5, fragrance TAK in EdT1, 1440 min, 32°C
[31] = Table 5, fragrance TAK in EdT1 or C3, T0, set at 100% (normalisation)
[32] = Table 6, fragrance TAK in C4, 15 min, 32°C
[33] = Table 6, fragrance TAK in C4, 60 min, 32°C
[34] = Table 6, fragrance TAK in C4, 120 min, 32°C
[35] = Table 6, fragrance TAK in C4, 240 min, 32°C
[36] = Table 6, fragrance TAK in C4, 480 min, 32°C
[37] = Table 6, fragrance TAK in EdT1, 15 min, 32°C
[38] = Table 6, fragrance TAK in EdT1, 60 min, 32°C
[39] = Table 6, fragrance TAK in EdT1, 120 min, 32°C
[40] = Table 6, fragrance TAK in EdT1, 240 min, 32°C
[41] = Table 6, fragrance TAK in EdT1, 480 min, 32°C
[42] = Table 6, fragrance TAK in EdT1 or C4, T0, set at 100% (normalisation)

CC(C=O)Cc1ccc(C(C)(C)C)cc1 (stereo not shown) [Lilial™, 3-(4-tert-Butylphenyl)-2-methylpropanal]
amount of fragrance ingredient retained on blotter (percentage of the initial amount) [1, 3]: 78% | amount of fragrance ingredient retained on blotter (percentage of the initial amount) [1, 4]: 79% | amount of fragrance ingredient retained on blotter (percentage of the initial amount) [1, 5]: 75% | amount of fragrance ingredient retained on blotter (percentage of the initial amount) [1, 6]: 72% | amount of fragrance ingredient retained on blotter (percentage of the initial amount) [1, 7]: 51% | amount of fragrance ingredient retained on blotter (percentage of the initial amount) [1, 8]: 91% | amount of fragrance ingredient retained on blotter (percentage of the initial amount) [1, 9]: 84% | amount of fragrance ingredient retained on blotter (percentage of the initial amount) [1, 10]: 75% | amount of fragrance ingredient retained on blotter (percentage of the initial amount) [1, 11]: 65% | amount of fragrance ingredient retained on blotter (percentage of the initial amount) [1, 12]: 23% | amount of fragrance ingredient retained on blotter (percentage of the initial amount) [1, 13]: 100% | amount of fragrance ingredient retained on blotter (percentage of the initial amount) [1, 14]: 98% | amount of fragrance ingredient retained on blotter (percentage of the initial amount) [1, 15]: 49% | amount of fragrance ingredient retained on blotter (percentage of the initial amount) [1, 16]: 87% | amount of fragrance ingredient retained on blotter (percentage of the initial amount) [1, 17]: 18% | amount of fragrance ingredient retained on blotter (percentage of the initial amount) [1, 18]: 100% | amount of fragrance ingredient retained on blotter (percentage of the initial amount) [1, 19]: 88% | amount of fragrance ingredient retained on blotter (percentage of the initial amount) [1, 20]: 92% | amount of fragrance ingredient retained on blotter (percentage of the initial amount) [1, 21]: 90% | amount of fragrance ingredient retained on blotter (percentage of the initial amount) [1, 22]: 87% | amount of fragrance ingredient retained on blotter (percentage of the initial amount) [1, 23]: 60% | amount of fragrance ingredient retained on blotter (percentage of the initial amount) [1, 24]: 45% | amount of fragrance ingredient retained on blotter (percentage of the initial amount) [1, 25]: 91% | amount of fragrance ingredient retained on blotter (percentage of the initial amount) [1, 26]: 84% | amount of fragrance ingredient retained on blotter (percentage of the initial amount) [1, 27]: 75% | amount of fragrance ingredient retained on blotter (percentage of the initial amount) [1, 28]: 65% | amount of fragrance ingredient retained on blotter (percentage of the initial amount) [1, 29]: 23% | amount of fragrance ingredient retained on blotter (percentage of the initial amount) [1, 30]: 6% | amount of fragrance ingredient retained on blotter (percentage of the initial amount) [1, 31]: 100% | amount of fragrance ingredient retained on blotter (percentage of the initial amount) [1, 32]: 99% | amount of fragrance ingredient retained on blotter (percentage of the initial amount) [1, 33]: 92% | amount of fragrance ingredient retained on blotter (percentage of the initial amount) [1, 34]: 88% | amount of fragrance ingredient retained on blotter (percentage of the initial amount) [1, 35]: 87% | amount of fragrance ingredient retained on blotter (percentage of the initial amount) [1, 36]: 52% | amount of fragrance ingredient retained on blotter (percentage of the initial amount) [1, 37]: 91% | amount of fragrance ingredient retained on blotter (percentage of the initial amount) [1, 38]: 84% | amount of fragrance ingredient retained on blotter (percentage of the initial amount) [1, 39]: 75% | amount of fragrance ingredient retained on blotter (percentage of the initial amount) [1, 40]: 65% | amount of fragrance ingredient retained on blotter (percentage of the initial amount) [1, 41]: 23% | amount of fragrance ingredient retained on blotter (percentage of the initial amount) [1, 42]: 100% | headspace concentration in composition C1 compared to control EdT1 ([2]; T0 + 8h, Figure 4): significantly greater

CCCCCCOC(C)=O [Hexyl acetate, Hexyl Acetate]
amount of fragrance ingredient retained on blotter (percentage of the initial amount) [1, 3]: 41% | amount of fragrance ingredient retained on blotter (percentage of the initial amount) [1, 4]: 5% | amount of fragrance ingredient retained on blotter (percentage of the initial amount) [1, 5]: 2% | amount of fragrance ingredient retained on blotter (percentage of the initial amount) [1, 6]: 2% | amount of fragrance ingredient retained on blotter (percentage of the initial amount) [1, 7]: 2% | amount of fragrance ingredient retained on blotter (percentage of the initial amount) [1, 8]: 13% | amount of fragrance ingredient retained on blotter (percentage of the initial amount) [1, 9]: 2% | amount of fragrance ingredient retained on blotter (percentage of the initial amount) [1, 10]: 2% | amount of fragrance ingredient retained on blotter (percentage of the initial amount) [1, 11]: 1% | amount of fragrance ingredient retained on blotter (percentage of the initial amount) [1, 12]: <1% | amount of fragrance ingredient retained on blotter (percentage of the initial amount) [1, 13]: 100% | amount of fragrance ingredient retained on blotter (percentage of the initial amount) [1, 14]: 54% | amount of fragrance ingredient retained on blotter (percentage of the initial amount) [1, 15]: <1% | amount of fragrance ingredient retained on blotter (percentage of the initial amount) [1, 16]: 15% | amount of fragrance ingredient retained on blotter (percentage of the initial amount) [1, 17]: 6% | amount of fragrance ingredient retained on blotter (percentage of the initial amount) [1, 18]: 100% | amount of fragrance ingredient retained on blotter (percentage of the initial amount) [1, 19]: 43% | amount of fragrance ingredient retained on blotter (percentage of the initial amount) [1, 20]: 5% | amount of fragrance ingredient retained on blotter (percentage of the initial amount) [1, 21]: 2% | amount of fragrance ingredient retained on blotter (percentage of the initial amount) [1, 22]: 2% | amount of fragrance ingredient retained on blotter (percentage of the initial amount) [1, 23]: 2% | amount of fragrance ingredient retained on blotter (percentage of the initial amount) [1, 24]: 2% | amount of fragrance ingredient retained on blotter (percentage of the initial amount) [1, 25]: 13% | amount of fragrance ingredient retained on blotter (percentage of the initial amount) [1, 26]: 2% | amount of fragrance ingredient retained on blotter (percentage of the initial amount) [1, 27]: 2% | amount of fragrance ingredient retained on blotter (percentage of the initial amount) [1, 28]: 1% | amount of fragrance ingredient retained on blotter (percentage of the initial amount) [1, 29]: <1% | amount of fragrance ingredient retained on blotter (percentage of the initial amount) [1, 30]: <1% | amount of fragrance ingredient retained on blotter (percentage of the initial amount) [1, 31]: 100% | amount of fragrance ingredient retained on blotter (percentage of the initial amount) [1, 32]: 41% | amount of fragrance ingredient retained on blotter (percentage of the initial amount) [1, 33]: 5% | amount of fragrance ingredient retained on blotter (percentage of the initial amount) [1, 34]: 5% | amount of fragrance ingredient retained on blotter (percentage of the initial amount) [1, 35]: 4% | amount of fragrance ingredient retained on blotter (percentage of the initial amount) [1, 36]: 3% | amount of fragrance ingredient retained on blotter (percentage of the initial amount) [1, 37]: 13% | amount of fragrance ingredient retained on blotter (percentage of the initial amount) [1, 38]: 2% | amount of fragrance ingredient retained on blotter (percentage of the initial amount) [1, 39]: 2% | amount of fragrance ingredient retained on blotter (percentage of the initial amount) [1, 40]: 1% | amount of fragrance ingredient retained on blotter (percentage of the initial amount) [1, 41]: <1% | amount of fragrance ingredient retained on blotter (percentage of the initial amount) [1, 42]: 100% | headspace presence of ingredient ([2]; after 1 hour, both control EdT1 and composition C1, Figure 2): lost
